Consider 30 compounds from patent US8148367B2 (Takeda Pharmaceutical Company Limited, priority 2008, dated 2012).

The experiment has as its target T1, Recombinant human renin (Homo sapiens, UniProt P00797).
T1 construct: isolate the active form (residues 67-406); made in house; host or cells: FreeStyle 293-F cells, transient expression of pcDNA3.1(+)/hREN
T1 sequence (P00797 67-406): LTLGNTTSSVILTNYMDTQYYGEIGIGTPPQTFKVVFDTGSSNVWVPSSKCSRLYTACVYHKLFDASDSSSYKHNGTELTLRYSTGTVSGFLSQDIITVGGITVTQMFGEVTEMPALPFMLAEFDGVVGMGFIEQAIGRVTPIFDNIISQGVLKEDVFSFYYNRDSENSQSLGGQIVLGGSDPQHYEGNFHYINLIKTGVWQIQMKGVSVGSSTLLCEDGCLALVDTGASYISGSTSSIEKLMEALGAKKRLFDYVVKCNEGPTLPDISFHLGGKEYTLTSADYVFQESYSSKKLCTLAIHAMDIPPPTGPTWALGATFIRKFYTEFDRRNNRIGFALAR
Nature of the experiment: In vitro enzymatic activity assay of renin inhibitors (fluorescence, QXL520/HiLyteFluo488 peptide substrate). The experiment is classed as biochemical. The conditions noted are these: recombinant human renin 3 nM, 1 μM substrate, pre-incubated 10 minutes at 37° C., incubation one hour, pH 7.4, 5% DMSO; read-out: IC50 of Exemplified Compounds Against Renin.
The IC50 is the concentration that inhibits the measured activity by half. Regarding `CN1CCOc2ccc(-n3c(-c4ccccc4)c(C(=O)N4CCNC[C@H]4Cc4ccccc4)[nH]c3=O)cc21` [Example 135, (R)-4-(2-Benzylpiperazine-1-carbonyl)-1-(4-methyl-3,4-dihydro-2H-benzo[b][1,4]oxazin-6-yl)-5-phenyl-1H-imidazol-2(3H)-one], the IC50 is less than 100 nM.
Next, `O=C(c1[nH]c(=O)n(-c2ccc3c(c2)NCC3)c1-c1ccccc1)N1CCNC[C@H]1Cc1ccccc1` [Example 136, (R)-4-(2-Benzylpiperazine-1-carbonyl)-1-(indolin-6-yl)-5-phenyl-1H-imidazol-2(3H)-one]: less than 100 nM; `COCCN1CCOc2ccc(-n3c(-c4ccccc4)c(C(=O)N4CCNC[C@H]4Cc4ccccc4)[nH]c3=O)cc21` [Example 137, (R)-4-(2-Benzylpiperazine-1-carbonyl)-1-(4-(2-methoxyethyl)-3,4-dihydro-2H-benzo[b][1,4]oxazin-6-yl)-5-phenyl-1H-imidazol-2(3H)-one]: less than 100 nM; `COC1CCc2ccc(-n3c(-c4ccccc4)c(C(=O)N4CCNC[C@H]4Cc4ccccc4)[nH]c3=O)cc21` (stereo partly drawn) [Example 138, 4-((R)-2-Benzylpiperazine-1-carbonyl)-1-(3-methoxy-2,3-dihydro-1H-inden-5-yl)-5-phenyl-1H-imidazol-2(3H)-one]: 100 to 500 nM.
As for `CCOC(=O)N1CCc2ccc(-n3c(-c4ccccc4)c(C(=O)N4CCNC[C@H]4Cc4ccccc4)[nH]c3=O)cc21` [Example 139, (R)-Ethyl 6-(4-(2-benzylpiperazine-1-carbonyl)-2-oxo-5-phenyl-2,3-dihydro-1H-imidazol-1-yl)indoline-1-carboxylate], the figure is less than 100 nM; as for `O=C(c1[nH]c(=O)n(-c2ccc3c(c2)NCCC3)c1-c1ccccc1)N1CCNC[C@H]1CCOc1ccccc1` [Example 140, (R)-4-(2-(2-Phenoxyethyl)piperazine-1-carbonyl)-5-phenyl-1-(1,2,3,4-tetrahydroquinolin-7-yl)-1H-imidazol-2(3H)-one], less than 100 nM; as for `C=CCn1c(C(=O)N2CCNCC2)c(-c2ccccc2)n(-c2ccccc2C)c1=O` [Example 141, 1-Allyl-4-phenyl-5-(piperazine-1-carbonyl)-3-o-tolyl-1H-imidazol-2(3H)-one], greater than 1000 nM.
As for `Cc1ccccc1-n1c(-c2ccccc2)c(C(=O)N2CCNCC2)n(Cc2cccc(Oc3ccccc3)c2)c1=O` [Example 142, 1-(3-Phenoxybenzyl)-4-phenyl-5-(piperazine-1-carbonyl)-3-o-tolyl-1H-imidazol-2(3H)-one], the figure is 100 to 500 nM.
Turning to `COc1cccc(Cn2c(C(=O)N3CCNCC3)c(-c3ccccc3)n(-c3ccccc3C)c2=O)c1` [Example 143, 1-(3-Methoxybenzyl)-4-phenyl-5-(piperazine-1-carbonyl)-3-o-tolyl-1H-imidazol-2(3H)-one], the IC50 fell in the range of 100 to 500 nM.
As for `Cc1ccccc1-n1c(-c2ccccc2)c(C(=O)N2CCNCC2)n(Cc2ccc(F)c(F)c2)c1=O` [Example 144, 1-(3,4-Difluorobenzyl)-4-phenyl-5-(piperazine-1-carbonyl)-3-o-tolyl-1H-imidazol-2(3H)-one], the figure is 500 to 1000 nM.
Next, `C=CCn1c(C(=O)N2CCNCC2)c(-c2ccccc2)n(-c2ccccc2OC)c1=O` [Example 145, 1-Allyl-3-(2-methoxyphenyl)-4-phenyl-5-(piperazine-1-carbonyl)-1H-imidazol-2(3H)-one]: greater than 1000 nM.
Next, `COc1ccccc1-n1c(-c2ccccc2)c(C(=O)N2CCNCC2)n(Cc2cccc(Oc3ccccc3)c2)c1=O` [Example 146, 1-(2-Methoxyphenyl)-3-(3-phenoxybenzyl)-5-phenyl-4-(piperazine-1-carbonyl)-1H-imidazol-2(3H)-one]: 100 to 500 nM.
`COc1cccc(Cn2c(C(=O)N3CCNCC3)c(-c3ccccc3)n(-c3ccccc3OC)c2=O)c1` [Example 147, 1-(3-Methoxybenzyl)-3-(2-methoxyphenyl)-4-phenyl-5-(piperazine-1-carbonyl)-1H-imidazol-2(3H)-one]: the half-inhibitory concentration (IC50) was greater than 1000 nM.
Next, `COc1ccccc1-n1c(-c2ccccc2)c(C(=O)N2CCNCC2)n(Cc2ccc(F)c(F)c2)c1=O` [Example 148, 1-(3,4-Difluorobenzyl)-3-(2-methoxyphenyl)-4-phenyl-5-(piperazine-1-carbonyl)-1H-imidazol-2(3H)-one]: greater than 1000 nM; `Cc1ccccc1-n1c(-c2ccccc2)c(C(=O)N2CCNCC2)n(Cc2cccc(OCCOc3ccccc3)c2)c1=O` [Example 149, 1-(3-(2-Phenoxyethoxy)benzyl)-4-phenyl-5-(piperazine-1-carbonyl)-3-o-tolyl-1H-imidazol-2(3H)-one]: 100 to 500 nM; `C=CCn1c(C(=O)N2CCNCC2)c(-c2ccccc2)n(-c2cccc(N3CCOCC3)c2)c1=O` [Example 150, 1-Allyl-3-(3-morpholinophenyl)-4-phenyl-5-(piperazine-1-carbonyl)-1H-imidazol-2(3H)-one]: greater than 1000 nM.
In the case of `COc1cccc(Cn2c(C(=O)N3CCNCC3)c(-c3ccccc3)n(-c3cccc(N4CCOCC4)c3)c2=O)c1` [Example 151, 1-(3-Methoxybenzyl)-3-(3-morpholinophenyl)-4-phenyl-5-(piperazine-1-carbonyl)-1H-imidazol-2(3H)-one], the IC50 was in the range of 100 to 500 nM.
As for `O=C(c1c(-c2ccccc2)n([C@H]2CCCC[C@H]2O)c(=O)n1Cc1cccc(Oc2ccccc2)c1)N1CCNCC1` [Example 152, 1-((1S,2R)-2-Hydroxycyclohexyl)-3-(3-phenoxybenzyl)-5-phenyl-4-(piperazine-1-carbonyl)-1H-imidazol-2(3H)-one], the figure is 500 to 1000 nM; as for `COc1cccc(Cn2c(C(=O)N3CCNCC3)c(-c3ccccc3)n([C@H]3CCCC[C@H]3O)c2=O)c1` [Example 153, 1-((1S,2R)-2-Hydroxycyclohexyl)-3-(3-methoxybenzyl)-5-phenyl-4-(piperazine-1-carbonyl)-1H-imidazol-2(3H)-one], greater than 1000 nM.
As for `O=C(c1c(-c2ccccc2)n([C@H]2CCCC[C@H]2O)c(=O)n1Cc1ccc(F)c(F)c1)N1CCNCC1` [Example 154, 1-(3,4-Difluorobenzyl)-3-((1S,2R)-2-hydroxycyclohexyl)-4-phenyl-5-(piperazine-1-carbonyl)-1H-imidazol-2(3H)-one], the figure is greater than 1000 nM.
Next, `Cc1ccccc1-n1c(-c2ccccc2)c(C(=O)N2CCNCC2)n(CCNS(=O)(=O)c2ccccc2)c1=O` [Example 155, N-(2-(2-oxo-4-Phenyl-5-(piperazine-1-carbonyl)-3-o-tolyl-2,3-dihydro-1H-imidazol-1-yl)ethyl)benzenesulfonamide]: greater than 1000 nM.
Take `Cc1ccccc1-n1c(-c2ccccc2)c(C(=O)N2CCNCC2)n(CCCNC(=O)c2ccccc2)c1=O` [Example 156, N-(3-(2-oxo-4-Phenyl-5-(piperazine-1-carbonyl)-3-o-tolyl-2,3-dihydro-1H-imidazol-1-yl)propyl)benzamide]: the IC50 is greater than 1000 nM.
Next, `O=C(c1c(-c2ccccc2)n([C@H]2CCCC[C@H]2O)c(=O)n1CC1CCCCC1)N1CCNCC1` [Example 157, 1-(Cyclohexylmethyl)-3-((1S,2R)-2-hydroxycyclohexyl)-4-phenyl-5-(piperazine-1-carbonyl)-1H-imidazol-2(3H)-one]: greater than 1000 nM; `COc1ccccc1-n1c(-c2ccccc2)c(C(=O)N2CCNCC2)n(CCNS(=O)(=O)c2ccccc2)c1=O` [Example 158, N-(2-(3-(2-Methoxyphenyl)-2-oxo-4-phenyl-5-(piperazine-1-carbonyl)-2,3-dihydro-1H-imidazol-1-yl)ethyl)benzenesulfonamide]: greater than 1000 nM.
Turning to `COc1ccccc1-n1c(-c2ccccc2)c(C(=O)N2CCNCC2)n(CCCNC(=O)c2ccccc2)c1=O` [Example 159, N-(3-(3-(2-Methoxyphenyl)-2-oxo-4-phenyl-5-(piperazine-1-carbonyl)-2,3-dihydro-1H-imidazol-1-yl)propyl)benzamide], the IC50 is greater than 1000 nM.
For `COc1ccccc1-n1c(-c2ccccc2)c(C(=O)N2CCNCC2)n(CC2CCCCC2)c1=O` [Example 160, 1-(Cyclohexylmethyl)-3-(2-methoxyphenyl)-4-phenyl-5-(piperazine-1-carbonyl)-1H-imidazol-2(3H)-one], the IC50 was greater than 1000 nM.
On to `COc1ccccc1-n1c(-c2ccccc2)c(C(=O)N2CCNCC2)n(CCCNS(=O)(=O)c2ccccc2)c1=O` [Example 161, N-(3-(3-(2-Methoxyphenyl)-2-oxo-4-phenyl-5-(piperazine-1-carbonyl)-2,3-dihydro-1H-imidazol-1-yl)propyl)benzenesulfonamide], for which the concentration for half-maximal inhibition (IC50) was in the range of 100 to 500 nM.
On to `Cc1ccccc1-n1c(-c2ccccc2)c(C(=O)N2CCNCC2)n(CCCNS(=O)(=O)c2ccccc2)c1=O` [Example 162, N-(3-(2-oxo-4-Phenyl-5-(piperazine-1-carbonyl)-3-o-tolyl-2,3-dihydro-1H-imidazol-1-yl)propyl)benzenesulfonamide], for which the IC50 lay within 100 to 500 nM.
Next, `Cc1ccccc1-n1c(-c2ccccc2)c(C(=O)N2CCNCC2)n(CC2CCCCC2)c1=O` [Example 163, 1-(Cyclohexylmethyl)-4-phenyl-5-(piperazine-1-carbonyl)-3-o-tolyl-1H-imidazol-2(3H)-one]: greater than 1000 nM.
On to `COCCCOc1cccc(-n2c(-c3ccccc3)c(C(=O)N3CCNCC3)n(Cc3ccc(F)c(F)c3)c2=O)c1` [Example 164, 1-(3,4-Difluorobenzyl)-3-(3-(3-methoxypropoxy)phenyl)-4-phenyl-5-(piperazine-1-carbonyl)-1H-imidazol-2(3H)-one], for which the 50% inhibitory concentration (IC50) is 500 to 1000 nM.
